# Results reported in BindingDB's records for doi:10.1016/j.bmcl.2013.05.024 (Janssen Research and Development, 2014).
# Test: Antagonist activity at CCR2 receptor in human THP1 cells assessed as inhibition of MCP-1 induced chemotaxis after 3 hrs
row,Compound,IC50
1,COC(=O)N1C[C@@H]2C[C@@H](NC3CCOCC3OC)C[C@]2(C(=O)N2CCc3ncc(C(F)(F)F)cc3C2)C1 (some centres undefined),69 nM
2,COC1COCCC1N[C@@H]1C[C@H]2CN(C(=O)OCCN3CCCC3)C[C@@]2(C(=O)N2CCc3ncc(C(F)(F)F)cc3C2)C1 (some centres undefined),28 nM
3,COC1COCCC1N[C@@H]1C[C@H]2CN(C(=O)/C=C/C(C)(C)C)C[C@@]2(C(=O)N2CCc3ncc(C(F)(F)F)cc3C2)C1 (some centres undefined),88 nM
4,COC1COCCC1N[C@@H]1C[C@H]2CN(C(=O)OCc3ccccc3)C[C@@]2(C(=O)N2CCc3ncc(C(F)(F)F)cc3C2)C1 (some centres undefined),190 nM
5,COC1COCCC1N[C@@H]1C[C@H]2CN(C(N)=NC#N)C[C@@]2(C(=O)N2CCc3ncc(C(F)(F)F)cc3C2)C1 (some centres undefined),29 nM
6,CNC(=O)N1C[C@@H]2C[C@@H](NC3CCOCC3OC)C[C@]2(C(=O)N2CCc3ncc(C(F)(F)F)cc3C2)C1 (some centres undefined),71 nM
7,COC1COCCC1N[C@@H]1C[C@H]2CN(C(=O)C#CC3CC3)C[C@@]2(C(=O)N2CCc3ncc(C(F)(F)F)cc3C2)C1 (some centres undefined),39 nM
8,COC1COCCC1N[C@@H]1C[C@H]2CN(C(C)=O)C[C@@]2(C(=O)N2CCc3ncc(C(F)(F)F)cc3C2)C1 (some centres undefined),230 nM
9,COC1COCCC1N[C@@H]1C[C@H]2CN(C(=O)NC(C)C)C[C@@]2(C(=O)N2CCc3ncc(C(F)(F)F)cc3C2)C1 (some centres undefined),81 nM
10,COCCOC(=O)N1C[C@@H]2C[C@@H](NC3CCOCC3OC)C[C@]2(C(=O)N2CCc3ncc(C(F)(F)F)cc3C2)C1 (some centres undefined),41 nM
11,COC1COCCC1N[C@@H]1C[C@H]2CN(C(=O)OCC3CCOCC3)C[C@@]2(C(=O)N2CCc3ncc(C(F)(F)F)cc3C2)C1 (some centres undefined),65 nM
12,COC1COCCC1N[C@@H]1C[C@H]2CN(C(=O)NCc3ccccc3)C[C@@]2(C(=O)N2CCc3ncc(C(F)(F)F)cc3C2)C1 (some centres undefined),220 nM
13,COC1COCCC1N[C@@H]1C[C@H]2CN(C(N)=O)C[C@@]2(C(=O)N2CCc3ncc(C(F)(F)F)cc3C2)C1 (some centres undefined),27 nM
14,COC1COCCC1N[C@@H]1C[C@H]2CN(c3ccccc3)C[C@@]2(C(=O)N2CCc3ncc(C(F)(F)F)cc3C2)C1 (some centres undefined),90 nM
15,COC1COCCC1N[C@@H]1C[C@H]2CN(C(=O)OCC(C)(C)C)C[C@@]2(C(=O)N2CCc3ncc(C(F)(F)F)cc3C2)C1 (some centres undefined),99 nM
16,COC1COCCC1N[C@@H]1C[C@H]2CN(C(=O)OCC(C)C)C[C@@]2(C(=O)N2CCc3ncc(C(F)(F)F)cc3C2)C1 (some centres undefined),21 nM
17,COC1COCCC1N[C@@H]1C[C@H]2CN(C(=O)Oc3ccccc3)C[C@@]2(C(=O)N2CCc3ncc(C(F)(F)F)cc3C2)C1 (some centres undefined),950 nM
18,COC1COCCC1N[C@@H]1C[C@H]2CN(C(=O)OCCN3CCOCC3)C[C@@]2(C(=O)N2CCc3ncc(C(F)(F)F)cc3C2)C1 (some centres undefined),97 nM
19,COC1COCCC1N[C@@H]1C[C@H]2CN(C(=O)OCCNC(C)=O)C[C@@]2(C(=O)N2CCc3ncc(C(F)(F)F)cc3C2)C1 (some centres undefined),18 nM
